# Reference: US10456407B2, “Combination therapy for treating cancer” (Epizyme, Inc., priority 2015, dated 2019)
# What was measured:
# Assay type in all cases: cell-based
# OCI-Ly19 cells [1] = assay: RT2 Glucocorticoid signaling PCR array, OCI-LY19 (Table 4a, printed OCT) cell line; conditions: vs DMSO
# Excerpt: (§1) Expression levels of (A). Sestrin; (B). TNF and (C) GILZ normalized to DMSO controls for each cell line with the indicated single agent or combination.
# SU-DHL4 cells = assay: RT2 Glucocorticoid signaling PCR array, SU-DHL4 (SUDHL4) cell line (Table 4f); conditions: SUDHL4, 4 days, vs DMSO
# Excerpt: as §1
# OCI-Ly19 cells [2] = assay: RT2 Glucocorticoid signaling PCR array, OCI-LY19 (Table 4a, printed OCT) cell line; conditions: vs DMSO; remark: listed apart in the source
# SU-DHL10 cells = assay: RT2 Glucocorticoid signaling PCR array, SU-DHL10 (SUDHL10) cell line (Table 4d); conditions: SUDHL10, 4 days, vs DMSO
compound,measurement,setting,value
CCN(c1cc(-c2ccc(CN3CCOCC3)cc2)cc(C(=O)NCc2c(C)cc(C)[nH]c2=O)c1C)C1CCOCC1 [Compound 44],"ΔΔCT, AFF1",OCI-Ly19 cells [1]; gene AFF1,−0.008
same,"ΔΔCT, AMPD3",OCI-Ly19 cells [1]; gene AMPD3,−0.654
same,"ΔΔCT, ANXA4",OCI-Ly19 cells [1]; gene ANXA4,−0.154
same,"ΔΔCT, CEBPA",OCI-Ly19 cells [1]; gene CEBPA,−2.891
same,"ΔΔCT, CREB1",OCI-Ly19 cells [1]; gene CREB1,0.006
same,"ΔΔCT, CREB3",OCI-Ly19 cells [1]; gene CREB3,0.057
same,"ΔΔCT, GHRHR",OCI-Ly19 cells [1]; gene GHRHR,−4.040
same,"ΔΔCT, GOT1",OCI-Ly19 cells [1]; gene GOT1,−0.084
same,"ΔΔCT, PER1",OCI-Ly19 cells [1]; gene PER1,0.674
same,"ΔΔCT, RGS2",OCI-Ly19 cells [1]; gene RGS2,−0.968
same,"ΔΔCT, SPSB1",OCI-Ly19 cells [1]; gene SPSB1,−0.097
same,"ΔΔCT, TBL1XR1",OCI-Ly19 cells [1]; gene TBL1XR1,−0.043
same,"ΔΔCT, TNF",OCI-Ly19 cells [1]; gene TNF,−0.600
same,"ΔΔCT, VLDLR",OCI-Ly19 cells [1]; gene VLDLR,−0.280
same,"ΔΔCT, BCL6",SU-DHL4 cells,−1.019
same,"ΔΔCT, CEBPB",SU-DHL4 cells,0.776
same,"ΔΔCT, DDIT4",SU-DHL4 cells,−1.317
same,"ΔΔCT, DUSP1",SU-DHL4 cells,−0.449
same,"ΔΔCT, NFKBIA",SU-DHL4 cells,−0.388
same,"ΔΔCT, PDP1",SU-DHL4 cells,−0.911
same,"ΔΔCT, POU2F2",SU-DHL4 cells,−0.539
same,"ΔΔCT, RASA3",SU-DHL4 cells,−0.731
same,"ΔΔCT, SPHK1",SU-DHL4 cells,−1.066
same,"ΔΔCT, STAT5A",SU-DHL4 cells,−0.587
same,"ΔΔCT, TNF",SU-DHL4 cells,−2.458
same,"ΔΔCT, VDR",SU-DHL4 cells,−2.155
same,"ΔΔCT, VLDLR",SU-DHL4 cells,0.438
same,"ΔΔCT, ZNF281",SU-DHL4 cells,−0.612
same,"ΔΔCT, ADARB1",OCI-Ly19 cells [2]; gene ADARB1,−0.789
same,"ΔΔCT, AK2",OCI-Ly19 cells [2]; gene AK2,−0.017
same,"ΔΔCT, ANGPTL4",OCI-Ly19 cells [2]; gene ANGPTL4,−0.305
same,"ΔΔCT, ARID68",OCI-Ly19 cells [2]; gene ARID68,0.232
same,"ΔΔCT, ASPH",OCI-Ly19 cells [2]; gene ASPH,−0.584
same,"ΔΔCT, ATF4",OCI-Ly19 cells [2]; gene ATF4,0.124
same,"ΔΔCT, BCL6",OCI-Ly19 cells [2]; gene BCL6,−1.395
same,"ΔΔCT, CEBPB",OCI-Ly19 cells [2]; gene CEBPB,0.390
same,ΔΔCT COL4A2,OCI-Ly19 cells [2]; gene COL4A2,0.309
same,"ΔΔCT, CREB3L4",OCI-Ly19 cells [2]; gene CREB3L4,−0.376
same,ΔΔCT CTGF,OCI-Ly19 cells [2]; gene CTGF,−0.052
same,"ΔΔCT, DDIT4",OCI-Ly19 cells [2]; gene DDIT4,−0.749
same,"ΔΔCT, DUSP1",OCI-Ly19 cells [2]; gene DUSP1,−0.395
same,"ΔΔCT, EHD3",OCI-Ly19 cells [2]; gene EHD3,−1.081
same,"ΔΔCT, FK8PS",OCI-Ly19 cells [2]; gene FK8PS,−0.319
same,"ΔΔCT, FOSL2",OCI-Ly19 cells [2]; gene FOSL2,−0.226
same,"ΔΔCT, GDPD1",OCI-Ly19 cells [2]; gene GDPD1,−0.020
same,ΔΔCT GLUL,OCI-Ly19 cells [2]; gene GLUL,−0.745
same,"ΔΔCT, H6PD",OCI-Ly19 cells [2]; gene H6PD,−0.915
same,"ΔΔCT, HNRPLL",OCI-Ly19 cells [2]; gene HNRPLL,−0.346
same,"ΔΔCT, IL1RN",OCI-Ly19 cells [2]; gene IL1RN,−1.244
same,"ΔΔCT, KLF9",OCI-Ly19 cells [2]; gene KLF9,−1.215
same,"ΔΔCT, KLF13",OCI-Ly19 cells [2]; gene KLF13,−0.452
same,"ΔΔCT, LOX",OCI-Ly19 cells [2]; gene LOX,−0.733
same,ΔΔCT MERTK,OCI-Ly19 cells [2]; gene MERTK,−0.805
same,ΔΔCT MTZA,OCI-Ly19 cells [2]; gene MTZA,−0.118
same,"ΔΔCT, NFKBIA",OCI-Ly19 cells [2]; gene NFKBIA,0.019
same,"ΔΔCT, NR3C1",OCI-Ly19 cells [2]; gene NR3C1,−0.023
same,ΔΔCT PDCC7,OCI-Ly19 cells [2]; gene PDCC7,0.024
same,ΔΔCT PDGFRB,OCI-Ly19 cells [2]; gene PDGFRB,0.934
same,"ΔΔCT, PDP1",OCI-Ly19 cells [2]; gene PDP1,−0.518
same,"ΔΔCT, PIK3R1",OCI-Ly19 cells [2]; gene PIK3R1,−0.274
same,"ΔΔCT, PLEKHF1",OCI-Ly19 cells [2]; gene PLEKHF1,−0.736
same,"ΔΔCT, POU2F1",OCI-Ly19 cells [2]; gene POU2F1,−0.120
same,"ΔΔCT, POU2F2",OCI-Ly19 cells [2]; gene POU2F2,0.031
same,"ΔΔCT, RASA3",OCI-Ly19 cells [2]; gene RASA3,−0.075
same,"ΔΔCT, RHOB",OCI-Ly19 cells [2]; gene RHOB,−1.378
same,"ΔΔCT, SESN1",OCI-Ly19 cells [2]; gene SESN1,−0.253
same,"ΔΔCT, SGK1",OCI-Ly19 cells [2]; gene SGK1,−0.458
same,"ΔΔCT, SLC10A6",OCI-Ly19 cells [2]; gene SLC10A6,−1.185
same,"ΔΔCT, SLC19A2",OCI-Ly19 cells [2]; gene SLC19A2,−0.211
same,"ΔΔCT, SLC22A5",OCI-Ly19 cells [2]; gene SLC22A5,−0.367
same,"ΔΔCT, SNTA1",OCI-Ly19 cells [2]; gene SNTA1,−0.908
same,"ΔΔCT, SPHK1",OCI-Ly19 cells [2]; gene SPHK1,0.016
same,"ΔΔCT, STAT5A",OCI-Ly19 cells [2]; gene STAT5A,0.113
same,"ΔΔCT, STAT5B",OCI-Ly19 cells [2]; gene STAT5B,−0.121
same,"ΔΔCT, TNFAIP3",OCI-Ly19 cells [2]; gene TNFAIP3,0.317
same,"ΔΔCT, TSC22D3",OCI-Ly19 cells [2]; gene TSC22D3,−0.671
same,"ΔΔCT, USP2",OCI-Ly19 cells [2]; gene USP2,−2.822
same,"ΔΔCT, USPS4",OCI-Ly19 cells [2]; gene USPS4,0.165
same,"ΔΔCT, VDR",OCI-Ly19 cells [2]; gene VDR,−0.553
same,"ΔΔCT, ZFP36",OCI-Ly19 cells [2]; gene ZFP36,0.427
same,"ΔΔCT, ZHX3",OCI-Ly19 cells [2]; gene ZHX3,−0.394
same,"ΔΔCT, ZNF281",OCI-Ly19 cells [2]; gene ZNF281,0.531
same,AFF1 ΔΔCT,SU-DHL10 cells,0.650
same,AMPD3 ΔΔCT,SU-DHL10 cells,−0.556
same,ANGPTL4 ΔΔCT,SU-DHL10 cells,0.615
same,ANXA4 ΔΔCT,SU-DHL10 cells,−2.475
same,BCL6 ΔΔCT,SU-DHL10 cells,0.640
same,CEBPB ΔΔCT,SU-DHL10 cells,3.019
same,CREB1 ΔΔCT,SU-DHL10 cells,−0.051
same,CREB3L4 ΔΔCT,SU-DHL10 cells,0.806
same,CREB3 ΔΔCT,SU-DHL10 cells,0.421
same,CYB561 ΔΔCT,SU-DHL10 cells,−2.399
same,DUSP1 ΔΔCT,SU-DHL10 cells,1.099
same,EHD3 ΔΔCT,SU-DHL10 cells,−0.855
same,FK8PS ΔΔCT,SU-DHL10 cells,0.042
same,FOSL2 ΔΔCT,SU-DHL10 cells,−0.063
same,GDPD1 ΔΔCT,SU-DHL10 cells,−1.405
same,HNRPLL ΔΔCT,SU-DHL10 cells,0.071
same,KLF9 ΔΔCT,SU-DHL10 cells,−1.127
same,KLF13 ΔΔCT,SU-DHL10 cells,−1.636
same,NFKBIA ΔΔCT,SU-DHL10 cells,0.602
same,PDCD7 ΔΔCT,SU-DHL10 cells,0.802
same,PDP1 ΔΔCT,SU-DHL10 cells,0.016
same,PER1 ΔΔCT,SU-DHL10 cells,0.780
same,PIK3R1 ΔΔCT,SU-DHL10 cells,0.831
same,PLEKHF1 ΔΔCT,SU-DHL10 cells,0.469
same,POU2F1 ΔΔCT,SU-DHL10 cells,0.006
same,POU2F2 ΔΔCT,SU-DHL10 cells,0.424
same,RA5A3 ΔΔCT,SU-DHL10 cells,0.385
same,RGS2 ΔΔCT,SU-DHL10 cells,0.072
same,RHOB ΔΔCT,SU-DHL10 cells,−1.475
same,SESN1 ΔΔCT,SU-DHL10 cells,−1.646
same,SGK1 ΔΔCT,SU-DHL10 cells,1.943
same,SLC10A6 ΔΔCT,SU-DHL10 cells,−0.648
same,SLC19A2 ΔΔCT,SU-DHL10 cells,−1.413
same,SLC22A5 ΔΔCT,SU-DHL10 cells,−1.733
same,SNTA1 ΔΔCT,SU-DHL10 cells,0.531
same,SPSB1 ΔΔCT,SU-DHL10 cells,−0.444
same,STAT5A ΔΔCT,SU-DHL10 cells,0.384
same,TBL1XR1 ΔΔCT,SU-DHL10 cells,0.234
same,TNFAIP3 ΔΔCT,SU-DHL10 cells,0.124
same,TSC22D3 ΔΔCT,SU-DHL10 cells,2.709
same,USP2 ΔΔCT,SU-DHL10 cells,0.070
same,USPS4 ΔΔCT,SU-DHL10 cells,−0.064
same,VLDLR ΔΔCT,SU-DHL10 cells,4.246
same,ZFP36 ΔΔCT,SU-DHL10 cells,0.215
same,ZHX3 ΔΔCT,SU-DHL10 cells,−1.169
same,ZNF281 ΔΔCT,SU-DHL10 cells,−0.437
